Experimental data from patent US10294248B2, “Beta-lactamase inhibitors” (VenatoRx Pharmaceuticals, Inc., priority 2013, dated 2019).

How the values were obtained:
[1] = target: T1, SHV-5 β-lactamase (Class A ESBL) (Klebsiella pneumoniae, UniProt P0A3M1); test: β-Lactamase inhibition, SHV-5; assay type: biochemical
T1 construct: made in house; host or cells: E. coli BL21(DE3)
Outline: (§1)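 Compounds are mixed with purified, untagged recombinant β-lactamase and held 15 min at 37 °C. Substrate is then added: nitrocefin (100 μM final) for OXA-1, imipenem for KPC-2, cefotaxime for SHV-5. Absorbance is followed immediately, and percent inhibition per concentration gives the IC50.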

[2] = target: T2, KPC-2 β-lactamase (Class A carbapenemase) (Klebsiella pneumoniae, UniProt Q9F663); test: β-Lactamase inhibition, KPC-2; assay type: biochemical; conditions: imipenem substrate, 300 nm; 15 min preincubation at 37° C., PBS pH 7.4
T2 construct: made in house; host or cells: E. coli BL21(DE3)
T2 sequence (Q9F663 25-293, looked up): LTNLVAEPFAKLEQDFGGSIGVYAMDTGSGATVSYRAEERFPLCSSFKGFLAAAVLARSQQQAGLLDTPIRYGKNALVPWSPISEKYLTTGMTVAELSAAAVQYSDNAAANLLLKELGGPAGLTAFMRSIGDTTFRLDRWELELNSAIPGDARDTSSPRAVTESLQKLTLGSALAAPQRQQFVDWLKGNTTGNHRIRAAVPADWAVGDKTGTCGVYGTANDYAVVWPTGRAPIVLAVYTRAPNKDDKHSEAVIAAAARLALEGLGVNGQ
Outline: as §1

[3] = target: T3, VIM-2 metallo-β-lactamase (Class B) (Pseudomonas aeruginosa, UniProt Q9K2N0); test: β-Lactamase inhibition, VIM-2; assay type: biochemical; conditions: nitrocefin 100 μM, 486 nm; 15 min preincubation at 37° C., PBS pH 7.4
T3 construct: made in house; host or cells: E. coli BL21(DE3)
Outline: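 Metallo-β-lactamase VIM-2 activity was tracked spectrophotometrically at 486 nm with 100 μM nitrocefin over 10 min, following 15 min preincubation with compound at 37 °C; inhibition was calculated per concentration.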

[4] = target: T4, p99 AmpC β-lactamase (Class C) (Enterobacter cloacae, UniProt P05364); test: β-Lactamase inhibition, p99 AmpC; assay type: biochemical
T4 construct: made in house; host or cells: E. coli BL21(DE3)
T4 sequence (P05364 21-381): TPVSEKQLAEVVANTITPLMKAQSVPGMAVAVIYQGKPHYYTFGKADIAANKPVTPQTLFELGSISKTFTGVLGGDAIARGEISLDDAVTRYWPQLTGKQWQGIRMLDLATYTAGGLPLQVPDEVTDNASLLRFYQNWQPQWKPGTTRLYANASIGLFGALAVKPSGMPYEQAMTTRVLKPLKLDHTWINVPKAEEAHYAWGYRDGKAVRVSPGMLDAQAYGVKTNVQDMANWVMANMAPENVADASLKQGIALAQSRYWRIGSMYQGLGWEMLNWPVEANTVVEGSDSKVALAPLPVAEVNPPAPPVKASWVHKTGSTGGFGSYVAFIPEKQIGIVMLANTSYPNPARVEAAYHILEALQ

[5] = target: T5, OXA-1 β-lactamase (Class D oxacillinase) (Escherichia coli, UniProt P13661); test: β-Lactamase inhibition, OXA-1; assay type: biochemical; conditions: nitrocefin 100 μM, 486 nm; 15 min preincubation at 37° C., PBS pH 7.4
T5 construct: made in house; host or cells: E. coli BL21(DE3)
T5 sequence (P13661 26-276): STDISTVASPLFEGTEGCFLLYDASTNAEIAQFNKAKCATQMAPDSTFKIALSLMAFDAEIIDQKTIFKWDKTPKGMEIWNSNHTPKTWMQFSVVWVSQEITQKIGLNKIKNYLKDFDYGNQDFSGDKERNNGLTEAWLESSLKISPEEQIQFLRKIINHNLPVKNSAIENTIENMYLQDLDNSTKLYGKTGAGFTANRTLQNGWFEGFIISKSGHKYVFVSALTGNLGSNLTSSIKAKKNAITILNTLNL
Outline: as §1

[6] = system: E. coli ESBL4 expressing CTX-M-15; test: Broth microdilution MIC, E. coli ESBL4 CTX-M-15; assay type: cell-based; conditions: fixed 4 μg/mL ceftazidime; CAMHB, 16-20 hours at 37° C.
Outline: (§2)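 Visual MIC readout follows 16-20 h incubation at 37° C. Final compound range spans 32 down to 0.25 μg/ml in two-fold steps, each well also carrying a β-lactam at a static 4 μg/ml, with inoculation done by the CLSI microdilution method in cation-adjusted Mueller Hinton broth.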

[7] = system: E. cloacae 144200 expressing Class C P99 AmpC; test: Broth microdilution MIC, E. cloacae 144200 p99 AmpC; assay type: cell-based; conditions: fixed 4 μg/mL ceftazidime; CAMHB, 16-20 hours at 37° C.
Outline: as §2

[8] = system: K. pneumoniae 156319 expressing KPC-3; test: Broth microdilution MIC, K. pneumoniae 156319 KPC-3; assay type: cell-based; conditions: fixed 4 μg/mL meropenem; CAMHB, 16-20 hours at 37° C.
Outline: as §2

[9] = system: P. aeruginosa Ps296 expressing VIM-2; test: Broth microdilution MIC, P. aeruginosa Ps296 VIM-2; assay type: cell-based; conditions: fixed 4 μg/mL meropenem; CAMHB, 16-20 hours at 37° C.
Outline: as §2

[10] = system: K. pneumoniae A-1797 expressing KPC-2 and VIM-4; test: Broth microdilution MIC, K. pneumoniae A-1797 KPC-2/VIM-4; assay type: cell-based; conditions: fixed 4 μg/mL meropenem; CAMHB, 16-20 hours at 37° C.
Outline: as §2

[11] = system: S. aureus MSSA-7 producing penicillinase PC-1; test: Broth microdilution MIC, S. aureus MSSA-7 PC-1; assay type: cell-based; conditions: fixed 4 μg/mL piperacillin; CAMHB, 16-20 hours at 37° C.
Outline: as §2

T1 sequence (P0A3M1 22-286): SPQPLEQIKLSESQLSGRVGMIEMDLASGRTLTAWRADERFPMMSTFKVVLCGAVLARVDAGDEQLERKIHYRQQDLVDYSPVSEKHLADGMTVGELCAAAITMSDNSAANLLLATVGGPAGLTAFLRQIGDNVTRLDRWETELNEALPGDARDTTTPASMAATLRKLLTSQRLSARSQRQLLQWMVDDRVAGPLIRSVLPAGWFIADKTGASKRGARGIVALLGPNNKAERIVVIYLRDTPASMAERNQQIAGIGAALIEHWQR

O=C(CN1CCCNCC1)N[C@H]1Cc2cccc(C(=O)O)c2OB1O [Example 13, 3-(2-[1,4]Diazepan-1-yl-acetylamino)-2-hydroxy-3,4-dihydro-2H-benzo[e][1,2]oxaborinine-8-carboxylic acid]
IC50 [1]: 100 to 1000 nM | IC50 [2]: 1000 to 10000 nM | IC50 [3]: 10 to 100 µM | IC50 [4]: < 100 nM | IC50 [5]: 100 to 1000 nM | MIC of example compound in presence of fixed β-lactam: Fixed CAZ, E. coli ESBL4 CTX-M-15 [6]: C (the MIC in the presence of <4 μg/mL of a β-lactamase inhibitor) | MIC of example compound in presence of fixed β-lactam: Fixed CAZ, E. cl. 144200 p99 AmpC [7]: C (the MIC in the presence of <4 μg/mL of a β-lactamase inhibitor) | MIC of example compound in presence of fixed β-lactam: Fixed Mero, K. P. 156319 KPC-3 [8]: C (the MIC in the presence of <4 μg/mL of a β-lactamase inhibitor) | MIC of example compound in presence of fixed β-lactam: Fixed Mero, P. aerug. Ps296 VIM-2 [9]: B (the MIC in the presence of between 8 and 32 μg/mL of a β-lactamase inhibitor) | MIC of example compound in presence of fixed β-lactam: Fixed Mero, K. P. A-1797 KPC-2 VIM-4 [10]: B (the MIC in the presence of between 8 and 32 μg/mL of a β-lactamase inhibitor) | MIC of example compound in presence of fixed β-lactam: Fixed Pip, S. aureus MSSA-7 PC-1 [11]: C (the MIC in the presence of <4 μg/mL of a β-lactamase inhibitor)

CNC1CCN(CC(=O)N[C@H]2Cc3cccc(C(=O)O)c3OB2O)CC1 [Example 14, 2-Hydroxy-3-[2-(4-methylamino-piperidin-1-yl)-acetylamino]-3,4-dihydro-2H-benzo[e][1,2]oxaborinine-8-carboxylic acid]
IC50 [1]: 100 to 1000 nM | IC50 [2]: 100 to 1000 nM | IC50 [3]: 1 to 10 µM | IC50 [4]: < 100 nM | IC50 [5]: 100 to 1000 nM | MIC of example compound in presence of fixed β-lactam: Fixed CAZ, E. coli ESBL4 CTX-M-15 [6]: C (the MIC in the presence of <4 μg/mL of a β-lactamase inhibitor) | MIC of example compound in presence of fixed β-lactam: Fixed CAZ, E. cl. 144200 p99 AmpC [7]: C (the MIC in the presence of <4 μg/mL of a β-lactamase inhibitor) | MIC of example compound in presence of fixed β-lactam: Fixed Mero, K. P. 156319 KPC-3 [8]: C (the MIC in the presence of <4 μg/mL of a β-lactamase inhibitor) | MIC of example compound in presence of fixed β-lactam: Fixed Mero, P. aerug. Ps296 VIM-2 [9]: B (the MIC in the presence of between 8 and 32 μg/mL of a β-lactamase inhibitor) | MIC of example compound in presence of fixed β-lactam: Fixed Mero, K. P. A-1797 KPC-2 VIM-4 [10]: B (the MIC in the presence of between 8 and 32 μg/mL of a β-lactamase inhibitor) | MIC of example compound in presence of fixed β-lactam: Fixed Pip, S. aureus MSSA-7 PC-1 [11]: C (the MIC in the presence of <4 μg/mL of a β-lactamase inhibitor)

O=C(CN1CCN(c2nccs2)CC1)N[C@H]1Cc2cccc(C(=O)O)c2OB1O [Example 15, 2-Hydroxy-3-[2-(4-thiazol-2-yl-piperazin-1-yl)-acetylamino]-3,4-dihydro-2H-benzo[e][1,2]oxaborinine-8-carboxylic acid]
IC50 [1]: 100 to 1000 nM | IC50 [2]: 1000 to 10000 nM | IC50 [3]: 1 to 10 µM | IC50 [4]: < 100 nM | IC50 [5]: 100 to 1000 nM | MIC of example compound in presence of fixed β-lactam: Fixed CAZ, E. coli ESBL4 CTX-M-15 [6]: C (the MIC in the presence of <4 μg/mL of a β-lactamase inhibitor) | MIC of example compound in presence of fixed β-lactam: Fixed CAZ, E. cl. 144200 p99 AmpC [7]: C (the MIC in the presence of <4 μg/mL of a β-lactamase inhibitor) | MIC of example compound in presence of fixed β-lactam: Fixed Mero, K. P. 156319 KPC-3 [8]: C (the MIC in the presence of <4 μg/mL of a β-lactamase inhibitor) | MIC of example compound in presence of fixed β-lactam: Fixed Mero, P. aerug. Ps296 VIM-2 [9]: C (the MIC in the presence of <4 μg/mL of a β-lactamase inhibitor) | MIC of example compound in presence of fixed β-lactam: Fixed Mero, K. P. A-1797 KPC-2 VIM-4 [10]: B (the MIC in the presence of between 8 and 32 μg/mL of a β-lactamase inhibitor) | MIC of example compound in presence of fixed β-lactam: Fixed Pip, S. aureus MSSA-7 PC-1 [11]: C (the MIC in the presence of <4 μg/mL of a β-lactamase inhibitor)

NCCN1CCN(CC(=O)N[C@H]2Cc3cccc(C(=O)O)c3OB2O)CC1 [Example 16, 3-{2-[4-(2-Amino-ethyl)-piperazin-1-yl]-acetylamino}-2-hydroxy-3,4-dihydro-2H-benzo[e][1,2]oxaborinine-8-carboxylic acid]
IC50 [1]: < 100 nM | IC50 [2]: 100 to 1000 nM | IC50 [3]: 1 to 10 µM | IC50 [4]: < 100 nM | IC50 [5]: < 100 nM | MIC of example compound in presence of fixed β-lactam: Fixed CAZ, E. coli ESBL4 CTX-M-15 [6]: C (the MIC in the presence of <4 μg/mL of a β-lactamase inhibitor) | MIC of example compound in presence of fixed β-lactam: Fixed CAZ, E. cl. 144200 p99 AmpC [7]: C (the MIC in the presence of <4 μg/mL of a β-lactamase inhibitor) | MIC of example compound in presence of fixed β-lactam: Fixed Mero, K. P. 156319 KPC-3 [8]: C (the MIC in the presence of <4 μg/mL of a β-lactamase inhibitor) | MIC of example compound in presence of fixed β-lactam: Fixed Mero, P. aerug. Ps296 VIM-2 [9]: C (the MIC in the presence of <4 μg/mL of a β-lactamase inhibitor) | MIC of example compound in presence of fixed β-lactam: Fixed Mero, K. P. A-1797 KPC-2 VIM-4 [10]: B (the MIC in the presence of between 8 and 32 μg/mL of a β-lactamase inhibitor) | MIC of example compound in presence of fixed β-lactam: Fixed Pip, S. aureus MSSA-7 PC-1 [11]: C (the MIC in the presence of <4 μg/mL of a β-lactamase inhibitor)

NCC(=O)N1CCN(CC(=O)N[C@H]2Cc3cccc(C(=O)O)c3OB2O)CC1 [Example 17, 3-{2-[4-(2-Amino-acetyl)-piperazin-1-yl]-acetylamino}-2-hydroxy-3,4-dihydro-2H-benzo[e][1,2]oxaborinine-8-carboxylic acid]
IC50 [1]: < 100 nM | IC50 [2]: 100 to 1000 nM | IC50 [3]: 1 to 10 µM | IC50 [4]: < 100 nM | IC50 [5]: < 100 nM | MIC of example compound in presence of fixed β-lactam: Fixed CAZ, E. coli ESBL4 CTX-M-15 [6]: B (the MIC in the presence of between 8 and 32 μg/mL of a β-lactamase inhibitor) | MIC of example compound in presence of fixed β-lactam: Fixed CAZ, E. cl. 144200 p99 AmpC [7]: C (the MIC in the presence of <4 μg/mL of a β-lactamase inhibitor) | MIC of example compound in presence of fixed β-lactam: Fixed Mero, K. P. 156319 KPC-3 [8]: B (the MIC in the presence of between 8 and 32 μg/mL of a β-lactamase inhibitor) | MIC of example compound in presence of fixed β-lactam: Fixed Mero, P. aerug. Ps296 VIM-2 [9]: A (an MIC of the fixed β-lactam antibiotic in the presence of >32 μg/mL of a β-lactamase inhibitor) | MIC of example compound in presence of fixed β-lactam: Fixed Mero, K. P. A-1797 KPC-2 VIM-4 [10]: A (an MIC of the fixed β-lactam antibiotic in the presence of >32 μg/mL of a β-lactamase inhibitor) | MIC of example compound in presence of fixed β-lactam: Fixed Pip, S. aureus MSSA-7 PC-1 [11]: C (the MIC in the presence of <4 μg/mL of a β-lactamase inhibitor)

O=C(CN1CCN(CCO)CC1)N[C@H]1Cc2cccc(C(=O)O)c2OB1O [Example 18, 2-Hydroxy-3-{2-[4-(2-hydroxy-ethyl)-piperazin-1-yl]-acetylamino}-3,4-dihydro-2H-benzo[e][1,2]oxaborinine-8-carboxylic acid]
IC50 [1]: 100 to 1000 nM | IC50 [2]: 100 to 1000 nM | IC50 [3]: 0.1 to 1 µM | IC50 [4]: < 100 nM | IC50 [5]: < 100 nM | MIC of example compound in presence of fixed β-lactam: Fixed CAZ, E. coli ESBL4 CTX-M-15 [6]: B (the MIC in the presence of between 8 and 32 μg/mL of a β-lactamase inhibitor) | MIC of example compound in presence of fixed β-lactam: Fixed CAZ, E. cl. 144200 p99 AmpC [7]: C (the MIC in the presence of <4 μg/mL of a β-lactamase inhibitor) | MIC of example compound in presence of fixed β-lactam: Fixed Mero, K. P. 156319 KPC-3 [8]: C (the MIC in the presence of <4 μg/mL of a β-lactamase inhibitor) | MIC of example compound in presence of fixed β-lactam: Fixed Mero, P. aerug. Ps296 VIM-2 [9]: B (the MIC in the presence of between 8 and 32 μg/mL of a β-lactamase inhibitor) | MIC of example compound in presence of fixed β-lactam: Fixed Mero, K. P. A-1797 KPC-2 VIM-4 [10]: B (the MIC in the presence of between 8 and 32 μg/mL of a β-lactamase inhibitor) | MIC of example compound in presence of fixed β-lactam: Fixed Pip, S. aureus MSSA-7 PC-1 [11]: A (an MIC of the fixed β-lactam antibiotic in the presence of >32 μg/mL of a β-lactamase inhibitor)
